In the SangsterLogP compilation:

Experiment: method code SF-AS, from DOI: 10.1098/rspb.1976.0034, PMID: 5728
Details: pH 4.5

Row | Compound | logD
1 | CCCOC(=O)c1ccc(S(N)(=O)=O)cc1 | 1.75
2 | CCCCCCNC(=O)c1ccc(S(N)(=O)=O)cc1 | 2.05
3 | CCc1ccc(S(N)(=O)=O)cc1 | 1.31
4 | CCCCOC(=O)c1ccc(S(N)(=O)=O)cc1 | 2.34
5 | CCCCc1ccc(S(N)(=O)=O)cc1 | 2.45
6 | CCCCCOC(=O)c1ccc(S(N)(=O)=O)cc1 | 2.71
7 | CCOC(=O)c1ccc(S(N)(=O)=O)cc1 | 1.17
8 | CCCc1ccc(S(N)(=O)=O)cc1 | 1.64

The remaining lines, values ahead:

Row | logD | Compound
9 | 1.05 | CCCCNC(=O)c1ccc(S(N)(=O)=O)cc1
10 | 0.03 | CCNC(=O)c1ccc(S(N)(=O)=O)cc1
11 | 1.51 | CCCCCNC(=O)c1ccc(S(N)(=O)=O)cc1
12 | 0.51 | CCCNC(=O)c1ccc(S(N)(=O)=O)cc1
13 | -0.31 | CNC(=O)c1ccc(S(N)(=O)=O)cc1
